Results reported in patent publication US20250163036A1, “DIPEPTIDYL PEPTIDASE 1 INHIBITOR POLYMORPH, PREPARATION METHOD AND USE THEREFOR” (HAISCO PHARMACEUTICALS PTE. LTD., priority 2022, published 2025).

What was measured:
[1] = Pharmacokinetic test in rats; type: in vivo, SD rats; conditions: rat, intragastric administration 3 mg/kg
Description: 1.1 Experimental animals: male SD rats, about 220 g, 6-8 weeks old, 6 rats/compound. Purchased from Chengdu Ddossy Experimental Animals Co., Ltd.
1.2 Experimental design: on the day of the experiment, 6 SD rats were randomly grouped according to their body weights. The animals were fasted with water available for 12 to 14 h one day before the administration and were fed 4 h after the administration.
Vehicle for intravenous administration: 5% DMA+5% Solutol+90% Saline; vehicle for intragastric administration: 0.5% MC; control compound INS1007, namely compound 2 in patent WO 2015110826A1, was prepared with reference to the method of the patent.
Before and after the administration, 0.1 ml of blood was taken from the orbit of the animals under isoflurane anesthesia and placed in an EDTAK2 centrifuge tube. The blood was centrifuged at 5000 rpm and 4° C. for 10 min to collect the plasma. Blood sampling time points for the intravenous administration group: 0, 5 min, 15 min, 30 min, 1 h, 2 h, 4 h, 6 h, 8 h, and 24 h; and blood sampling time points for the intragastric administration group: 0, 5 min, 15 min, 30 min, 1 h, 2 h, 4 h, 6 h, 8 h, and 24 h. Before analysis and detection, all samples were stored at −80° C.

[2] = Hygroscopicity by dynamic vapor sorption (DVS); type: physicochemical; conditions: 25° C./80% RH
Description: The hygroscopicity of the crystal forms B and C was evaluated by a dynamic vapor sorption (DVS) instrument. The test collected the percentage change in the mass of the samples when the humidity changed (60% RH-95% RH-0% RH-95% RH or 0% RH-95% RH-0% RH) at a constant temperature of 25° C., wherein for the crystal form C, the test started at ambient humidity (about 60% RH), and for the crystal form B, the test started at 0% relative humidity (0% RH). The test results are shown in FIGS. 12 and 13, respectively.

[3] = Variable-temperature / heating XRPD test; type: physicochemical
Description: (initial temperature). […] In order to study the TGA weight loss of the crystal form B, a variable-temperature XRPD test was performed. […] (some diffraction peaks shifted at 120° C., and it is speculated that the shift may be caused by lattice expansion at high temperature). Therefore, it is speculated that the free base crystal form B is an anhydrous crystal form.
(peak temperatures). The sample was heated to 120° C. and cooled to room temperature, and then an XRPD test was performed. […] Based on the fact of crystal transformation of the sample upon heating in combination with the stepwise weight loss of the TGA, it is speculated that the crystal form C is a monohydrate.

[4] = Solid stability without protection (XRPD, UPLC); type: physicochemical
Description: For the compounds used in this experiment, the crystal form B was obtained from Example 3, and the crystal form C was obtained from Example 5
The crystal forms B and C were placed at 25° C./60% RH and 40° C./75% RH without any protection, and then the physical and chemical stabilities thereof were tested by XRPD and UPLC, respectively.

[5] = Stability, accelerated experiment; type: physicochemical; conditions: 40° C.±2° C., 75% RH±5% RH
Description: The compounds used in this experiment were obtained from Example 4. Examination conditions: 40° C.±2° C., 75% RH±5% RH. Packaging: the inner packaging material is a double-layer medicinal low-density polyethylene bag, and the outer packaging material is a polyester/aluminum/polyethylene medicinal composite bag. In particular, the analysis method of purity is as follows: [table]

[6] = Stability, long-term experiment 1; type: physicochemical; conditions: 25° C.±2° C., 60% RH±5% RH
Description: The compounds used in this experiment were obtained from Example 4. Examination conditions: 25° C.±2° C., 60% RH±5% RH. Packaging: the inner packaging material is a double-layer medicinal low-density polyethylene bag, and the outer packaging material is a polyester/aluminum/polyethylene medicinal composite bag. In particular, the analysis method of purity is as follows: [table]

[7] = Stability, long-term experiment 2; type: physicochemical; conditions: 30° C.±2° C., 65% RH±5% RH
Description: The compounds used in this experiment were obtained from Example 4. Examination conditions: 30° C.±2° C., 65% RH±5% RH. Packaging: the inner packaging material is a double-layer medicinal low-density polyethylene bag, and the outer packaging material is a polyester/aluminum/polyethylene medicinal composite bag. In particular, the analysis method of purity is as follows: [table]

[8] = Stability, long-term experiment 3; type: physicochemical; conditions: 2° C.-8° C.
Description: The compounds used in this experiment were obtained from Example 4. Examination conditions: 2° C.-8° C. Packaging: the inner packaging material is a double-layer medicinal low-density polyethylene bag, and the outer packaging material is a polyester/aluminum/polyethylene medicinal composite bag. In particular, the analysis method of purity is as follows: [table]

Cn1c(=O)oc2ccc(-c3ccc(C[C@@H](C#N)NC(=O)[C@@H]4CNCCCO4)c(F)c3)cc21 [Compound I, (S)—N—((S)-1-cyano-2-(2-fluoro-4-(3-methyl-2-oxo-2,3-dihydrobenzo[d]oxazol-5-yl)phenyl)ethyl)-1,4-oxazepane-2-carboxamide]
F [1]: >100%

Cn1c(=O)oc2ccc(-c3ccc(C[C@@H](C#N)NC(=O)[C@@H]4CNCCCO4)c(F)c3)cc21 [Crystal form B]
Moisture sorption [2]: 0.19% | Crystal form change in variable-temperature XRPD ([3]; purged with nitrogen for 20 minutes, heated to 120° C., or cooled to 30° C.): did not change | Crystal form change ([4]; 25° C./60% RH, 1 month): No | Purity ([4]; 25° C./60% RH, 1 month): 99.76 | Crystal form change ([4]; 25° C./60% RH, 1 week): No | Purity ([4]; 25° C./60% RH, 1 week): 99.74 | Purity ([4]; 25° C./60% RH, 3 weeks): 99.74 | Crystal form change ([4]; 40° C./75% RH, 1 month): No | Purity ([4]; 40° C./75% RH, 1 month): 99.63 | Crystal form change ([4]; 40° C./75% RH, 1 week): No | Purity ([4]; 40° C./75% RH, 1 week): 99.65 | Purity ([4]; 40° C./75% RH, 3 weeks): 99.57 | Purity ([4]; initial value): 99.86 | Content ([5]; month 0): 100.5% | Crystal form ([5]; month 0): form B | Moisture ([5]; month 0): 0.2% | Purity ([5]; month 0): 99.93% | Content ([5]; month 1): 100.4% | Crystal form ([5]; month 1): form B | Moisture ([5]; month 1): 0.3% | Purity ([5]; month 1): 99.87% | Content ([5]; month 2): 101.1% | Crystal form ([5]; month 2): form B | Moisture ([5]; month 2): 0.2% | Purity ([5]; month 2): 99.88% | Content ([5]; month 3): 100.1% | Crystal form ([5]; month 3): form B | Moisture ([5]; month 3): 0.2% | Purity ([5]; month 3): 99.87% | Content ([5]; month 6): 101.3% | Crystal form ([5]; month 6): form B | Moisture ([5]; month 6): 0.2% | Purity ([5]; month 6): 99.88% | Content ([6]; month 0): 100.5% | Crystal form ([6]; month 0): form B | Moisture ([6]; month 0): 0.2% | Purity ([6]; month 0): 99.93% | Content ([6]; month 3): 100.6% | Crystal form ([6]; month 3): form B | Moisture ([6]; month 3): 0.3% | Purity ([6]; month 3): 99.87% | Content ([6]; month 6): 100.7% | Crystal form ([6]; month 6): form B | Moisture ([6]; month 6): 0.2% | Purity ([6]; month 6): 99.90% | Content ([6]; month 9): 101.6% | Crystal form ([6]; month 9): form B | Moisture ([6]; month 9): 0.1% | Purity ([6]; month 9): 99.89% | Content ([6]; month 12): 99.5% | Crystal form ([6]; month 12): form B | Moisture ([6]; month 12): 0.2% | Purity ([6]; month 12): 99.88% | Content ([7]; month 0): 100.5% | Crystal form ([7]; month 0): form B | Moisture ([7]; month 0): 0.2% | Purity ([7]; month 0): 99.93% | Content ([7]; month 3): 100.6% | Crystal form ([7]; month 3): form B | Moisture ([7]; month 3): 0.3% | Purity ([7]; month 3): 99.87% | Content ([7]; month 6): 101.6% | Crystal form ([7]; month 6): form B | Moisture ([7]; month 6): 0.2% | Purity ([7]; month 6): 99.90% | Content ([7]; month 9): 100.7% | Crystal form ([7]; month 9): form B | Moisture ([7]; month 9): 0.1% | Purity ([7]; month 9): 99.90% | Content ([7]; month 12): 99.2% | Crystal form ([7]; month 12): form B | Moisture ([7]; month 12): 0.2% | Purity ([7]; month 12): 99.89% | Content ([8]; month 0): 100.5% | Crystal form ([8]; month 0): form B | Moisture ([8]; month 0): 0.2% | Purity ([8]; month 0): 99.93% | Content ([8]; month 3): 100.5% | Crystal form ([8]; month 3): form B | Moisture ([8]; month 3): 0.3% | Purity ([8]; month 3): 99.87% | Content ([8]; month 6): 100.0% | Crystal form ([8]; month 6): form B | Moisture ([8]; month 6): 0.3% | Purity ([8]; month 6): 99.89% | Content ([8]; month 9): 101.6% | Crystal form ([8]; month 9): form B | Moisture ([8]; month 9): 0.2% | Purity ([8]; month 9): 99.89% | Content ([8]; month 12): 101.0% | Crystal form ([8]; month 12): form B | Moisture ([8]; month 12): 0.2% | Purity ([8]; month 12): 99.89%

Cn1c(=O)oc2ccc(-c3ccc(C[C@@H](C#N)NC(=O)[C@@H]4CNCCCO4)c(F)c3)cc21 [Crystal form C]
Moisture sorption [2]: 0.97% | Crystal form change upon heating (XRPD) ([3]; heated to 120° C. and cooled to room temperature): transformed into the crystal form B | Crystal form change ([4]; 25° C./60% RH, 1 week): No | Purity ([4]; 25° C./60% RH, 1 week): 99.70 | Crystal form change ([4]; 40° C./75% RH, 1 week): No | Purity ([4]; 40° C./75% RH, 1 week): 99.71 | Purity ([4]; initial value): 99.87

Cn1c(=O)oc2ccc(-c3ccc(C[C@@H](C#N)NC(=O)[C@@H]4CNCCCO4)cc3)cc21 [INS1007, reference compound]
F [1]: 88.1%
